Patent publication US20250296971A1, “GASTRIC INHIBITORY PEPTIDE RECEPTOR LIGANDS” (priority 2021, published 2025)
Like-named read-outs stand apart in the source and are kept apart here. *1 amine or outer side, *2 acyl side, *3 side chain or, on linkers, in order; H or OH if unused. Where a SMILES comes first, the peptide text is derived from it. Bridges are numbered along the chain shown (N, C = ends). [ ]: non-standard residue; d: D form. The star is where a group is joined. X5 = NC(=O)[C@H](CCCCNC(=O)CN1CCN(CC(=O)O)CCN(CC(=O)O)CCN(CC(=O)O)CC1)NC(=O)CCC(=O)NCCCOCCOCCOCCCN*; DOTA(Ga) = O=C1CN2CCN3CCN(CC(=O)*)CCN(CC2)CC(=O)[O][Ga]([O]1)[O]C(=O)C3; DOTA(Lu) = O=C1CN2CCN3CCN(CC(=O)*)CCN(CC2)CC(=O)[O][Lu]([O]1)[O]C(=O)C3; X3 = O=C(O)CN1CCN(CC(=O)O)CCN(CC(=O)NCCCOCCOCCOCCCN*)CCN(CC(=O)O)CC1; NH(1-deoxy-D-glucityl) = OC[C@@H](O)[C@@H](O)[C@H](O)[C@@H](O)CN*; DOTA = O=C(O)CN1CCN(CC(=O)O)CCN(CC(=O)*)CCN(CC(=O)O)CC1; Trp(5-Cl) = N[C@@H](Cc1c[nH]c2ccc(Cl)cc12)C(=O)O; Pyridine(2,6-diCH2) = c1cc(C[*:1])nc(C[*:2])c1; Pro(4R-NH2) = N[C@H]1CN[C@H](C(=O)O)C1; mXylylene = c1cc(C[*:1])cc(C[*:2])c1; Glutaryl = O=C(CCCC(=O)[*:2])[*:1]; X7 = c1cc(CSCCN[*:2])cc(C[*:1])c1; Hyp = O=C(O)[C@@H]1C[C@@H](O)CN1; X1 = O=C(CN1CCC(N[*:1])CC1)[*:2]; Suc = O=C(CCC(=O)[*:2])[*:1]; hSer = N[C@@H](CCO)C(=O)O; Api = NC1(C(=O)O)CCNCC1; Aib = CC(C)(N)C(=O)O

Assays:
[1] = target: T1, GIPR (CHO-K1-hGIPR cells) (Homo sapiens, UniProt P48546); assay: FACS binding assay; details: competition with 20 nM GIP-057, 4° C., 1 hour
T1 construct: host or cells: CHO-K1
T1 sequence (P48546 22-466): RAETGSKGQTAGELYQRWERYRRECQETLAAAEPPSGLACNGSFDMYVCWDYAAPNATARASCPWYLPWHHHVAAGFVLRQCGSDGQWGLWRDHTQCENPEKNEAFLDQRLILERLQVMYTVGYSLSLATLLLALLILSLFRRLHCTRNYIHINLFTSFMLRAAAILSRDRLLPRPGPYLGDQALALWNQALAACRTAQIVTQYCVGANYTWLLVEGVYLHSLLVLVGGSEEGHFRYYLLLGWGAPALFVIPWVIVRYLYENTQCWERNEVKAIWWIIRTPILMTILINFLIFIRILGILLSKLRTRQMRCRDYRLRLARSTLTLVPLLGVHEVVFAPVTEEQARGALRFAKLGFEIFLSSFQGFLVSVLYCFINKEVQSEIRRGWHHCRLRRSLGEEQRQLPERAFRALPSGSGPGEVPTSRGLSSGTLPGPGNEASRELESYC
Procedure, shortened: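 Peptide binding read by flow cytometry as APC-channel median fluorescence, fitted with a four-parameter logistic to yield EC50 or IC50. Cells were hGIPR-transfected CHO-K1 in PBS with 1% FCS, detected with 1 μg/mL APC-streptavidin, 30 min on ice.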

[2] = target: T2, human GIP receptor (bioGIPR) (Homo sapiens, UniProt P48546); assay: Surface plasmon resonance (SPR) based binding assay; details: for t1/2 Category: SPR dissociation half-life
T2 construct: Biotinylate extracellular of the human GIP receptor (bioGIPR, Proteros biostructures GmbH, lot #02/2b); purchased Proteros biostructures GmbH lot #02/2b
T2 sequence (P48546 22-138 limits assumed): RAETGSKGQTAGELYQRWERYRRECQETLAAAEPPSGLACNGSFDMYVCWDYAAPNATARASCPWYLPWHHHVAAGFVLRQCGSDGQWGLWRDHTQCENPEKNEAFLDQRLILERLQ
Procedure: Surface plasmon resonance (SPR) studies were performed using a Biacore™ T200 SPR system. Briefly, polarized light is directed towards a gold-labeled sensor surface, and minimum intensity reflected light is detected. The angle of reflected light changes as molecules bind and dissociate.
Biotinylate extracellular of the human GIP receptor (bioGIPR, Proteros biostructures GmbH, lot #02/2b) was captured on a biotin capture chip (Biotin CAPture Kit, Series S, GE Healthcare, Cat #28-9202-34). bioGIPR was diluted in Running Buffer (HBST from Xantec Analytics; […], 0.05% Tween20, 0.1% DMSO) to a final concentration 100 nM and than flushed over the Fc-capture chip to immobilized ˜3500 RUs.
Stock solutions of test compounds were prepared by dissolving each compound in DMSO. DMSO stock solution were diluted 1:1000 in Running Buffer without DMSO. Further sequential dilutions were made with Running Buffer containing 0.1% DMSO. SPR binding analyses were performed in Single Cycle Kinetic (SCK) mode at 25° C. Flow cell without immobilized bioGIPR served as reference flowcell. After each SCK run, bioGIRP and the Biotin Capture Reagent was removed with Regeneration Solution (6 M Guanidium, 0.75 M NaOH).
In between every three SCK measurements, a blank run with Running Buffer instead of test compound was included to correct for baseline drifts (double blanking method).
For each test compound, SPR raw data in the form of resonance units (RU) were plotted as sensorgrams using the Biacore™ T200 control software. The signal from the blank sensorgram was subtracted from that of the test compound sensorgram (blank corrected). The blank corrected sensorgram was corrected for baseline drift by subtracting the sensorgram of a SCK run without the test compound (running buffer only). The association rate (kon), dissociation rate (koff), dissociation constant (KD), and t1/2 were calculated from blank corrected SPR data using the 1:1 Langmuir binding model from the Biacore™ T200 evaluation software. Raw data and fit results were imported as text files in IDBS. The pKD value (negative decadic logarithm of dissociation constant) was calculated in the IDBS excel template.

[3] = read-out: pIC50 Category (converted)
[4] = Single Cycle Kinetic mode, 25° C.
[5] = SPR, Single Cycle Kinetic mode, 25° C., 1:1 Langmuir binding model, read-out: pKD Category (converted)

SMILES | IC50 [1, 3] | t1/2 Category [2, 4] | Kd [2, 5] | IC50 ([1]; pIC50 Category) | Kd [2]
CC[C@H](C)[C@@H]1NC(=O)[C@H](CC(C)C)NC(=O)C2(CCN(C(=O)CN3CCN(CC(=O)O)CCN(CC(=O)O)CCN(CC(=O)O)CC3)CC2)NC(=O)[C@@H](NC(=O)[C@@H](CC(C)C)NC(=O)[C@H](CCO)NC(=O)[C@@H]2C[C@@H](N)CN2C(=O)[C@H](Cc2c[nH]c3ccc(Cl)cc23)NC(=O)[C@H](Cc2c[nH]c3ccccc23)NC(=O)[C@H](CO)NC(=O)CN2CCC(NC(=O)CCCC(=O)NC[C@H](O)[C@@H](O)[C@H](O)[C@H](O)CO)CC2)CSCc2cccc(n2)CSC[C@@H](C(=O)NC2CCN(CC(=O)N[C@H](CCC(=O)NC[C@H](O)[C@@H](O)[C@H](O)[C@H](O)CO)C(N)=O)CC2)NC1=O [GIP-048, AGLU-Glutar-APAc-Ser-Trp-5Clw-Tap-Hse-leu-[Cys(2Lut)-Apc(DOTA)-Leu-Ile-Cys]-APAc-glu(AGLU)-NH2] ({NH(1-deoxy-D-glucityl)-Glutaryl}-[X1]SW[Trp(5-Cl)][Pro(4R-NH2)][hSer][dL]C[Api](DOTA)LIC[X1][dE](NH(1-deoxy-D-glucityl))-NH2; linker 8-12 via Pyridine(2,6-diCH2)) | 10 to 79.4 nM | D (t1/2<2.0 min) | 1 to 7.94 nM |  | 
CC[C@H](C)[C@@H]1NC(=O)[C@H](CC(C)C)NC(=O)C2(CCN(C(=O)CN3CCN(CC(=O)O)CCN(CC(=O)O)CCN(CC(=O)O)CC3)CC2)NC(=O)[C@@H](NC(=O)[C@@H](CC(C)C)NC(=O)[C@H](CCC(=O)O)NC(=O)[C@@H]2C[C@@H](O)CN2C(=O)[C@H](Cc2c[nH]c3ccc(Cl)cc23)NC(=O)[C@H](Cc2c[nH]c3ccccc23)NC(=O)[C@H](CCO)NC(=O)CN2CCC(NC(=O)CCCC(=O)NC[C@H](O)[C@@H](O)[C@H](O)[C@H](O)CO)CC2)CSCc2cccc(n2)CSC[C@@H](C(=O)NC2CCN(CC(=O)N[C@H](CCC(=O)NC[C@H](O)[C@@H](O)[C@H](O)[C@H](O)CO)C(N)=O)CC2)NC1=O [GIP-049, AGLU-Glutar-APAc-Hse-Trp-5Clw-Hyp-Glu-leu-[Cys(2Lut)-Apc(DOTA)-Leu-Ile-Cys]-APAc-glu(AGLU)-NH2] ({NH(1-deoxy-D-glucityl)-Glutaryl}-[X1][hSer]W[Trp(5-Cl)][Hyp]E[dL]C[Api](DOTA)LIC[X1][dE](NH(1-deoxy-D-glucityl))-NH2; linker 8-12 via Pyridine(2,6-diCH2)) | 10 to 79.4 nM | D (t1/2<2.0 min) | 1 to 7.94 nM |  | 
CC[C@H](C)[C@@H]1NC(=O)[C@H](CC(C)C)NC(=O)C2(CCN(C(=O)CN3CCN4CCN5CCN(CC3)CC(=O)[O][Lu]([O]C(=O)C5)[O]C(=O)C4)CC2)NC(=O)[C@@H](NC(=O)[C@@H](CC(C)C)NC(=O)[C@H](CCC(=O)O)NC(=O)[C@@H]2C[C@@H](N)CN2C(=O)[C@H](Cc2c[nH]c3ccc(Cl)cc23)NC(=O)[C@H](Cc2c[nH]c3ccccc23)NC(=O)[C@H](CC(=O)O)NC(=O)CCCC(=O)NC[C@H](O)[C@@H](O)[C@H](O)[C@H](O)CO)CSCc2cccc(n2)CSC[C@@H](C(=O)NC2CCN(CC(=O)N[C@H](CCC(=O)NC[C@H](O)[C@@H](O)[C@H](O)[C@H](O)CO)C(N)=O)CC2)NC1=O [GIP-066, Lutetium-Complex of AGLU-Glutar-Asp-Trp-5Clw-Hyp-Glu-leu-[Cys(2Lut)-Apc(DOTA)-Leu-Ile-Cys]-APAc-glu(AGLU)-NH2] ({NH(1-deoxy-D-glucityl)-Glutaryl}-DW[Trp(5-Cl)][Pro(4R-NH2)]E[dL]C[Api](DOTA(Lu))LIC[X1][dE](NH(1-deoxy-D-glucityl))-NH2; linker 7-11 via Pyridine(2,6-diCH2)) |  | A (t1/2 values>15 min) |  | < 10 nM | < 1 nM
CC[C@H](C)[C@@H]1NC(=O)[C@H](CC(C)C)NC(=O)C2(CCN(C(=O)CN3CCN4CCN5CCN(CC3)CC(=O)[O][Ga]([O]C(=O)C5)[O]C(=O)C4)CC2)NC(=O)[C@@H](NC(=O)[C@@H](CC(C)C)NC(=O)[C@H](CCC(=O)O)NC(=O)[C@@H]2C[C@@H](N)CN2C(=O)[C@H](Cc2c[nH]c3ccc(Cl)cc23)NC(=O)[C@H](Cc2c[nH]c3ccccc23)NC(=O)[C@H](CC(=O)O)NC(=O)CCCC(=O)NC[C@H](O)[C@@H](O)[C@H](O)[C@H](O)CO)CSCc2cccc(n2)CSC[C@@H](C(=O)NC2CCN(CC(=O)N[C@H](CCC(=O)NC[C@H](O)[C@@H](O)[C@H](O)[C@H](O)CO)C(N)=O)CC2)NC1=O [GIP-069, Gallium-Complex of AGLU-Glutar-Asp-Trp-5Clw-Tap-Glu-leu-[Cys(2Lut)-Apc(DOTA)-Leu-Ile-Cys]-APAc-glu(AGLU)-NH2] ({NH(1-deoxy-D-glucityl)-Glutaryl}-DW[Trp(5-Cl)][Pro(4R-NH2)]E[dL]C[Api](DOTA(Ga))LIC[X1][dE](NH(1-deoxy-D-glucityl))-NH2; linker 7-11 via Pyridine(2,6-diCH2)) | < 10 nM | A (t1/2 values>15 min) | < 1 nM |  | 
CC[C@H](C)[C@@H]1NC(=O)[C@H](CC(C)C)NC(=O)C(C)(C)NC(=O)[C@@H](NC(=O)[C@@H](CC(C)C)NC(=O)[C@H](CCC(=O)O)NC(=O)[C@@H]2CCCN2C(=O)[C@H](Cc2c[nH]c3ccc(Cl)cc23)NC(=O)[C@H](Cc2c[nH]c3ccccc23)NC(=O)[C@H](CC(=O)O)NC(=O)CCC(=O)NCCCOCCOCCOCCCNC(=O)CN2CCN(CC(=O)O)CCN(CC(=O)O)CCN(CC(=O)O)CC2)CSCc2cccc(c2)CSCCNC1=O [GIP-077, DOTA-Ttds-Asp-Trp-5Clw-Pro-Glu-leu-[Cys(3MeBn)-Aib-Leu-Ile-AET]] ({X3-Suc}-DW[Trp(5-Cl)]PE[dL]C[Aib]LI; linker 7-C via X7) | < 10 nM |  | < 1 nM |  | 
CC[C@H](C)[C@@H]1NC(=O)[C@H](CC(C)C)NC(=O)C(C)(C)NC(=O)[C@@H](NC(=O)[C@@H](CC(C)C)NC(=O)[C@H](CCC(=O)O)NC(=O)[C@@H]2CCCN2C(=O)[C@H](Cc2c[nH]c3ccc(Cl)cc23)NC(=O)[C@H](Cc2c[nH]c3ccccc23)NC(=O)[C@H](CC(=O)O)NC(C)=O)CSCc2cccc(c2)CSC[C@@H](C(=O)NCCCOCCOCCOCCCNC(=O)CCC(=O)N[C@@H](CCCCNC(=O)CN2CCN(CC(=O)O)CCN(CC(=O)O)CCN(CC(=O)O)CC2)C(N)=O)NC1=O [GIP-079, Ac-Asp-Trp-5Clw-Pro-Glu-leu-[Cys(3MeBn)-Aib-Leu-Ile-Cys]-Ttds-Lys(DOTA)-NH2] (Ac-DW[Trp(5-Cl)]PE[dL]C[Aib]LIC-X5; linker 7-11 via mXylylene) | < 10 nM | A (t1/2 values>15 min) | < 1 nM |  | 
CC[C@H](C)[C@@H]1NC(=O)[C@H](CC(C)C)NC(=O)C(C)(C)NC(=O)[C@@H](NC(=O)[C@@H](CC(C)C)NC(=O)[C@H](CCC(=O)O)NC(=O)[C@@H]2C[C@@H](N)CN2C(=O)[C@H](Cc2c[nH]c3ccc(Cl)cc23)NC(=O)[C@H](Cc2c[nH]c3ccccc23)NC(=O)[C@H](CC(=O)O)NC(=O)CCC(=O)NCCCOCCOCCOCCCNC(=O)CN2CCN(CC(=O)O)CCN(CC(=O)O)CCN(CC(=O)O)CC2)CSCc2cccc(c2)CSCCNC1=O [GIP-095, DOTA-Ttds-Asp-Trp-5Clw-Tap-Glu-leu-[Cys(3MeBn)-Aib-Leu-Ile-AET]] ({X3-Suc}-DW[Trp(5-Cl)][Pro(4R-NH2)]E[dL]C[Aib]LI; linker 7-C via X7) | < 10 nM | A (t1/2 values>15 min) | < 1 nM |  | 
